Reference: patent US20230263803A1, “METHODS OF PREVENTING OR TREATING COVID-19 AND RELATED VIRAL DISEASES OR DISORDERS” (KINARUS AG, priority 2020, published 2023)

Legend:
[1] = test system: SARS-CoV-2PR1; experiment: microbe, parasite or virus in culture; type: cell-based; conditions: Vero B4 cells, 72 hrs, qRT-PCR
[2] = test system: Vero B4 cells; conditions: 72 hrs

Row | Structure (SMILES) | inhibition at 0.1 µM ([1]; Severe acute respiratory syndrome coronavirus 2, lowest concentration tested (100 nM), read-out: inhibition of shedding of new SARS-CoV-2 viruses into culture supernatants) [%] | cellular toxicity as determined by WST assay [2] | inhibition of viral shedding ([1]; at the highest concentrations) [%]
1 | Cn1c(=O)c(Oc2ccc(F)cc2F)cc2cnc(NC(CCO)CCO)nc21 [Pamapimod, 6-(2,4-Difluorophenoxy)-2-[3-hydroxy-1-(2-hydroxyethyl)-propylamino]-8-methyl-8H-pyrido[2,3-d]pyrimidin-7-one] | 80 | no cellular toxicity | 
2 | CCc1ccc(CCOc2ccc(CC3SC(=O)NC3=O)cc2)nc1 (stereo not drawn) [Pioglitazone] |  |  | > 90
